Results reported in patent US11666640B2, “Glucose oxidase compositions as a neonate anticonvulsant” (PENN STATE RESEARCH FOUNDATION, priority 2018, dated 2023).
Entries after “also recorded” stand apart in the source; their conditions may differ.

What was measured:
[1] = system: cultured neurons; experiment: LIVE/DEAD viability assay, kainic acid (KA)-induced cell death model; assay type: cell-based, mouse; conditions: sodium salt
Source text: Epileptic activity may induce cell death both in epileptic patients and animal models. Chen et al., “Differential roles of NR2A- and NR2B-containing NMDA receptors in activity-dependent brain-derived neurotrophic factor gene regulation and limbic epileptogenesis” The Journal Of Neuroscience: the official journal of the Society for Neuroscience 27:542-552 (2007); and Naseer et al., “Maternal epileptic seizure induced by pentylenetetrazol: apoptotic neurodegeneration and decreased GABAB1 receptor expression in prenatal rat brain” Molecular Brain 2:20 (2009). […] Wu et al., “Protective effect of resveratrol against kainate-induced temporal lobe epilepsy in rats” Neurochemical Research 34:1393-1400 (2009). In a control group, most neurons appeared to be healthy in morphology and were stained by calcein (green, live) but not ethidium homodimer-1 (EthD-1, red, death). See, FIG. 1J, left. […]
A LIVE/DEAD® Viability/Cytotoxicity Assay Kit (L3224, Life Technologies) containing ethidium homodimer-1 and calcein-AM was used to examine cell viability. Ethidium homodimer-1 binds to cellular DNA and typically labels dead cells in red fluorescence, while Calcein-AM can be cleaved by esterases in live cells to give strong green fluorescence. […] Cell survival and death rate were measured by quantifying the percentage of green and red fluorescent cells, respectively. […]

[2] = system: sodium, potassium or calcium channels; experiment: Na+, K+ and Ca2+ currents in cultured cortical neurons; assay type: cell-based, mouse; conditions: 10 mM NaGcA; sodium salt
Source text: Experiments were designed to answer the question as to what is/are the molecular target(s) of gluconate. Ion channel regulation was first investigated where a comparison of NaGcA on sodium, potassium or calcium channels was made. […] See, FIGS. 2A-2F. Although it is not necessary to understand the mechanism of an invention, it is believed that since gluconic acid is an organic anion, it might affect neuronal anion channels.

[3] = system: Cl− channels; experiment: Cl− current recording in cultured cortical neurons; assay type: cell-based, mouse; conditions: 10 mM NaGcA
[4] = system: KA induced neonatal seizure; experiment: KA-induced neonatal seizure, in vivo EEG recording; design: species or system rat
Protocol: For example, neonatal rats were administered gluconate to determine the effect on in vivo epileptic seizures in neonatal and adult animals. […] FIGS. 14A and 14B; Dzhala et al., “NKCC1 transporter facilitates seizures in the developing brain” Nature Medicine 11:1205-1213 (2005). […] FIGS. 14C and 14D.
(§1) To test the in vivo anti-epilepsy effects of gluconate in neonatal and adult rodents, P8-12 Sprague-Dawley rats or 2-month old male C57BL/6 mice were deeply anesthetized with pentobarbital sodium (50 mg/kg for neonatal rat and 100 mg/kg for adult mice, intraperitoneal injection). Two stainless steel screws (1 mm in diameter) were inserted in the skull above the cortex as EEG recording electrodes, one ground electrode as well as one reference electrode were located +1.8 mm anterior to bregma, ±0.5 mm lateral to the midline, and 1 mm below the cortical surface. All electrodes were attached to a micro-connector and fixed onto the skull with dental cement. After surgery, neonatal rats were returned to their mothers and allowed to recover for 2 days prior to subsequent EEG recording. The adult mice were single housed in order to prevent damage of the implanted electrodes and allowed to recover at least 5 days before EEG recording.
The baseline of EEG was recorded for 0.5-1 hr to allow the animal to adapt to the environment. Kainic acid (2 mg/kg) was administered intraperitoneally (i.p.) for neonatal epilepsy induction. D-gluconic acid sodium salt (2 g/kg) or 0.9% saline was injected i.p. 10 min after KA administration. Pentylenetetrazol (PTZ) was administered intraperitoneally for inducing a stable epileptic burst activity in adult mice, and D-gluconic acid sodium salt (1 g/kg and 2 g/kg) or 0.9% saline was injected i.p. 10 min before PTZ administration. Epileptiform activity was monitored for 1 hr after PTZ injection. Qian et al., “Epileptiform response of CA1 neurones to convulsant stimulation by cyclothiazide, kainic acid and pentylenetetrazol in anaesthetized rats” Seizure 20:312-319 (2011). After the experiment, animals were injected with diazepam to protect the animals from recurrent epilepsy.
Power was calculated in 1-min time windows by integrating the power of dominant frequency bands from 1 to 100 Hz (EEG band).

[5] = system: PTZ-induced epileptic seizures; experiment: PTZ-induced epileptiform activity in adult mice, EEG recording; assay type: in vivo, mouse; conditions: PTZ 50 mg/kg i.p.
Protocol: as §1
The baseline of EEG was recorded for 0.5-1 hr to allow the animal to adapt to the environment. Kainic acid (2 mg/kg) was administered intraperitoneally (i.p.) for neonatal epilepsy induction. D-gluconic acid sodium salt (2 g/kg) or 0.9% saline was injected i.p. 10 min after KA administration. […] Epileptiform activity was monitored for 1 hr after PTZ injection. […]
Adult EEG signal were analyzed by spike 2 software (an analysis program for CED 1401, Cambridge, UK). […]

[6] = system: GABA-induced neuronal activity; experiment: Cell-attached recording of spike firing elicited by isoguvacine in CA3 pyramidal neurons; assay type: cell-based, mouse; conditions: P8-9, isoguvacine 10 μM, 30 s
Protocol: Besides EGABA, the effects of different drugs on GABA-induced neuronal activity during epileptogenesis were investigated in neonatal animals (e.g., P8-9). To accurately measure GABA-induced neuronal activity, cell-attached recordings monitored spike firing elicited by local application of the GABAA-R agonist isoguvacine (10 μM, 30 s). Tyzio et al., “Maternal oxytocin triggers a transient inhibitory switch in GABA signaling in the fetal brain during delivery” Science 314:1788-1792 (2006). […] FIG. 16K, control, (n=32). […] FIG. 16K, 0 Mg^2+ (n=19). […] FIG. 16K; 0 Mg^2++Bum (n=19); and 0 Mg^2++VU (n=21). […] FIG. 16K; 0 Mg^2++NaGcA (n=18).

O=C([O-])[C@H](O)[C@@H](O)[C@H](O)[C@H](O)CO.[Na+] [NaGcA, D-gluconic acid sodium salt]
KA-induced neuronal death ([1]; 10 μM KA for 24 hrs, co-application of 20 mM NaGcA): abolished; also recorded: neuron protection function | neuron survival rate, NaGcA alone ([1]; 20 mM NaGcA alone): no side effect; also recorded: without any side effect | Na+, K+ and Ca2+ currents [2]: no significant changes; also recorded: no effect | Cl− currents ([3]; recorded at +90 mV): 499±89 pA | Cl− currents (inhibition) ([3]; sodium salt): significantly decreased; also recorded: significant NaGcA inhibition | epileptic seizure (burst) activity in EEG ([4]; P10-12, KA 2 mg/kg i.p., drug i.p. 10 min after KA: NaGcA 2 g/kg, phenobarbital 25 mg/kg, bumetanide 2 mg/kg, sodium salt): significantly inhibited; also recorded: potently inhibited; also recorded: essentially abolished; also recorded: no robust burst discharges | average power of epileptic activity induced by KA, lowering ([4]; P10-12, NaGcA 2 g/kg i.p. vs saline, 1 min time window): 70% | reduction of relative EEG power ([4]; last 30 min of a 2-hr recording period after KA injection, neonatal): 72.3% | epileptic burst activity induced by PTZ [5]: did not suppress the epileptic burst activity as effective | latency of epileptiform spikes or bursts induced by PTZ ([5]; NaGcA 1 and 2 g/kg, sodium salt): prolonging the latency; also recorded: prolonged | spike activity elicited by isoguvacine after 0 Mg2+ treatment [6]: essentially abolished
